Measured values reported in ChEMBL document CHEMBL4507294, “Data for DCP probe MSD-CYP11B2” (2021).

Legend:
[1] = target: Phosphatidylinositol 4,5-bisphosphate 3-kinase catalytic subunit gamma isoform (Homo sapiens) (UniProt P48736); details: Compound concentration 1000.0 nM
[2] = target: High affinity nerve growth factor receptor (Homo sapiens) (UniProt P04629); details: Compound concentration 1000.0 nM
[3] = target: MAP kinase-interacting serine/threonine-protein kinase 1 (Homo sapiens) (UniProt Q9BUB5); details: Compound concentration 1000.0 nM
[4] = target: Ephrin type-A receptor 6 (Homo sapiens) (UniProt Q9UF33); details: Compound concentration 1000.0 nM
[5] = test system: Receptor-type tyrosine-protein kinase FLT3 (Homo sapiens), P36888 [UNDEFINED MUTATION]; details: Compound concentration 1000.0 nM
[6] = test system: Epidermal growth factor receptor (Homo sapiens), P00533 [T790M]; details: Compound concentration 1000.0 nM
[7] = target: Ephrin type-A receptor 3 (Homo sapiens) (UniProt P29320); details: Compound concentration 1000.0 nM
[8] = target: Beta-2 adrenergic receptor (Homo sapiens) (UniProt P07550); details: Compound concentration 10.0 uM
[9] = target: Citron Rho-interacting kinase (Homo sapiens) (UniProt O14578); details: Compound concentration 1000.0 nM
[10] = test system: Mast/stem cell growth factor receptor Kit (Homo sapiens), P10721 [V559D,V654A]; details: Compound concentration 1000.0 nM
[11] = target: Platelet-derived growth factor receptor alpha (Homo sapiens) (UniProt P16234); details: Compound concentration 1000.0 nM
[12] = target: Mitogen-activated protein kinase kinase kinase 10 (Homo sapiens) (UniProt Q02779); details: Compound concentration 1000.0 nM
[13] = target: Casein kinase I isoform alpha-like (Homo sapiens) (UniProt Q8N752); details: Compound concentration 1000.0 nM
[14] = target: Activin receptor type-1-like (Homo sapiens) (UniProt P37023); details: Compound concentration 1000.0 nM
[15] = target: Cyclin-dependent kinase 8 (Homo sapiens) (UniProt P49336); details: Compound concentration 1000.0 nM
[16] = target: Serine/threonine-protein kinase 17A (Homo sapiens) (UniProt Q9UEE5); details: Compound concentration 1000.0 nM
[17] = target: Death-associated protein kinase 2 (Homo sapiens) (UniProt Q9UIK4); details: Compound concentration 1000.0 nM
[18] = target: Phosphatidylinositol 4-phosphate 3-kinase C2 domain-containing subunit beta (Homo sapiens) (UniProt O00750); details: Compound concentration 1000.0 nM
[19] = target: T1, 5-hydroxytryptamine receptor 3A (Homo sapiens) (UniProt P46098); details: Compound concentration 10.0 uM
T1 sequence (whole entry): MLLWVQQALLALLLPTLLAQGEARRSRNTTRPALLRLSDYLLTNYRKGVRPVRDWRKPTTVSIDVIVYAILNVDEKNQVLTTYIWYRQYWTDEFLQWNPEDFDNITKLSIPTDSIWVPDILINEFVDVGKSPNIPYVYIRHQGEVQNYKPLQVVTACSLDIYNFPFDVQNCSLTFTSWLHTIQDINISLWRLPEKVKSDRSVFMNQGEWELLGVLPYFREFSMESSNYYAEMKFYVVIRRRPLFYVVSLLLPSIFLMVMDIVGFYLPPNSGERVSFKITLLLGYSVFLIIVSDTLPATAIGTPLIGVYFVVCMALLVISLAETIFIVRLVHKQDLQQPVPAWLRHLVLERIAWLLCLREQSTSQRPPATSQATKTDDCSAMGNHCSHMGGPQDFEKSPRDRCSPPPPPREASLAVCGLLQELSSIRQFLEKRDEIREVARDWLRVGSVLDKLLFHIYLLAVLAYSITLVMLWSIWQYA

[20] = target: 5-hydroxytryptamine receptor 1B (Homo sapiens) (UniProt P28222); details: Compound concentration 10.0 uM
[21] = target: 5-hydroxytryptamine receptor 2A (Homo sapiens) (UniProt P28223); details: Compound concentration 10.0 uM
[22] = target: Tyrosine-protein kinase Fes/Fps (Homo sapiens) (UniProt P07332); details: Compound concentration 1000.0 nM
[23] = target: Serine/threonine-protein kinase ULK3 (Homo sapiens) (UniProt Q6PHR2); details: Compound concentration 1000.0 nM
[24] = target: 5'-AMP-activated protein kinase catalytic subunit alpha-2 (Homo sapiens) (UniProt P54646); details: Compound concentration 1000.0 nM
[25] = target: Dual specificity mitogen-activated protein kinase kinase 6 (Homo sapiens) (UniProt P52564); details: Compound concentration 1000.0 nM
[26] = test system: Phosphatidylinositol 4,5-bisphosphate 3-kinase catalytic subunit alpha isoform (Homo sapiens), P42336 [I800L]; details: Compound concentration 1000.0 nM
[27] = target: Ribosomal protein S6 kinase alpha-4 (Homo sapiens) (UniProt O75676); details: Compound concentration 1000.0 nM
[28] = target: Mast/stem cell growth factor receptor Kit (Homo sapiens) (UniProt P10721); details: Compound concentration 1000.0 nM
[29] = target: Phosphatidylinositol 5-phosphate 4-kinase type-2 gamma (Homo sapiens) (UniProt Q8TBX8); details: Compound concentration 1000.0 nM
[30] = target: Serine/threonine-protein kinase 10 (Homo sapiens) (UniProt O94804); details: Compound concentration 1000.0 nM
[31] = target: Serine/threonine-protein kinase TAO1 (Homo sapiens) (UniProt Q7L7X3); details: Compound concentration 1000.0 nM
[32] = target: Ribosomal protein S6 kinase alpha-5 (Homo sapiens) (UniProt O75582); details: Compound concentration 1000.0 nM
[33] = target: Inhibitor of nuclear factor kappa-B kinase subunit alpha (Homo sapiens) (UniProt O15111); details: Compound concentration 1000.0 nM
[34] = target: Tyrosine-protein kinase JAK1 (Homo sapiens) (UniProt P23458); details: Compound concentration 1000.0 nM
[35] = target: Myosin-IIIa (Homo sapiens) (UniProt Q8NEV4); details: Compound concentration 1000.0 nM
[36] = target: Tyrosine-protein kinase ABL1 (Homo sapiens) (UniProt P00519); details: Compound concentration 1000.0 nM
[37] = target: Insulin-like growth factor 1 receptor (Homo sapiens) (UniProt P08069); details: Compound concentration 1000.0 nM
[38] = target: Mitogen-activated protein kinase kinase kinase kinase 1 (Homo sapiens) (UniProt Q92918); details: Compound concentration 1000.0 nM

5-hydroxytryptamine receptor 2A (Homo sapiens), sequence (P28223 whole entry): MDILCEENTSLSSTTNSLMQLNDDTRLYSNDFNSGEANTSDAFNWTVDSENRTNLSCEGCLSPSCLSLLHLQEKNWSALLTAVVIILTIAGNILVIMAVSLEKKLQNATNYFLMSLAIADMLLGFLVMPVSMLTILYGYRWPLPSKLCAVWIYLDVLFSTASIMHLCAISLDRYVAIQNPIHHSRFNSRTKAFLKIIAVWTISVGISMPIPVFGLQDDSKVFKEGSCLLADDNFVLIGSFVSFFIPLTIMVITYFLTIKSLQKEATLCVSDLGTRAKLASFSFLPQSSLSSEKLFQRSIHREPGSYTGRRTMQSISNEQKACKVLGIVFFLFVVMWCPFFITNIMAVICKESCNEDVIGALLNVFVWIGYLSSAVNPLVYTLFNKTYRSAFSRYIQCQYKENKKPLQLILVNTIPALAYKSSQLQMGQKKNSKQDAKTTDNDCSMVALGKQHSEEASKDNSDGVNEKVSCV
MAP kinase-interacting serine/threonine-protein kinase 1 (Homo sapiens), sequence (Q9BUB5 whole entry, looked up): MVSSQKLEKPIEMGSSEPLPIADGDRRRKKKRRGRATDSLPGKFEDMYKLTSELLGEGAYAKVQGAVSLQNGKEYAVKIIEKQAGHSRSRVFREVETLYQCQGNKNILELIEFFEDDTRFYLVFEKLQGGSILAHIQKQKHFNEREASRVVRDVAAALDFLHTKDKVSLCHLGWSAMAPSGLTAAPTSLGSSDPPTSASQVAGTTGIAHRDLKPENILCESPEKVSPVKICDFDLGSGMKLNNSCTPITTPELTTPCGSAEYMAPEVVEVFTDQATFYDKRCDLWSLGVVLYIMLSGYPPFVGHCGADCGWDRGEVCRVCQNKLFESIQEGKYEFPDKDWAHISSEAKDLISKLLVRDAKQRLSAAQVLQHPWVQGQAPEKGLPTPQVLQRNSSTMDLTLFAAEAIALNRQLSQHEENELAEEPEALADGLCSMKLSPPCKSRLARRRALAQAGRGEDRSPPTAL
Citron Rho-interacting kinase (Homo sapiens), sequence (O14578 whole entry): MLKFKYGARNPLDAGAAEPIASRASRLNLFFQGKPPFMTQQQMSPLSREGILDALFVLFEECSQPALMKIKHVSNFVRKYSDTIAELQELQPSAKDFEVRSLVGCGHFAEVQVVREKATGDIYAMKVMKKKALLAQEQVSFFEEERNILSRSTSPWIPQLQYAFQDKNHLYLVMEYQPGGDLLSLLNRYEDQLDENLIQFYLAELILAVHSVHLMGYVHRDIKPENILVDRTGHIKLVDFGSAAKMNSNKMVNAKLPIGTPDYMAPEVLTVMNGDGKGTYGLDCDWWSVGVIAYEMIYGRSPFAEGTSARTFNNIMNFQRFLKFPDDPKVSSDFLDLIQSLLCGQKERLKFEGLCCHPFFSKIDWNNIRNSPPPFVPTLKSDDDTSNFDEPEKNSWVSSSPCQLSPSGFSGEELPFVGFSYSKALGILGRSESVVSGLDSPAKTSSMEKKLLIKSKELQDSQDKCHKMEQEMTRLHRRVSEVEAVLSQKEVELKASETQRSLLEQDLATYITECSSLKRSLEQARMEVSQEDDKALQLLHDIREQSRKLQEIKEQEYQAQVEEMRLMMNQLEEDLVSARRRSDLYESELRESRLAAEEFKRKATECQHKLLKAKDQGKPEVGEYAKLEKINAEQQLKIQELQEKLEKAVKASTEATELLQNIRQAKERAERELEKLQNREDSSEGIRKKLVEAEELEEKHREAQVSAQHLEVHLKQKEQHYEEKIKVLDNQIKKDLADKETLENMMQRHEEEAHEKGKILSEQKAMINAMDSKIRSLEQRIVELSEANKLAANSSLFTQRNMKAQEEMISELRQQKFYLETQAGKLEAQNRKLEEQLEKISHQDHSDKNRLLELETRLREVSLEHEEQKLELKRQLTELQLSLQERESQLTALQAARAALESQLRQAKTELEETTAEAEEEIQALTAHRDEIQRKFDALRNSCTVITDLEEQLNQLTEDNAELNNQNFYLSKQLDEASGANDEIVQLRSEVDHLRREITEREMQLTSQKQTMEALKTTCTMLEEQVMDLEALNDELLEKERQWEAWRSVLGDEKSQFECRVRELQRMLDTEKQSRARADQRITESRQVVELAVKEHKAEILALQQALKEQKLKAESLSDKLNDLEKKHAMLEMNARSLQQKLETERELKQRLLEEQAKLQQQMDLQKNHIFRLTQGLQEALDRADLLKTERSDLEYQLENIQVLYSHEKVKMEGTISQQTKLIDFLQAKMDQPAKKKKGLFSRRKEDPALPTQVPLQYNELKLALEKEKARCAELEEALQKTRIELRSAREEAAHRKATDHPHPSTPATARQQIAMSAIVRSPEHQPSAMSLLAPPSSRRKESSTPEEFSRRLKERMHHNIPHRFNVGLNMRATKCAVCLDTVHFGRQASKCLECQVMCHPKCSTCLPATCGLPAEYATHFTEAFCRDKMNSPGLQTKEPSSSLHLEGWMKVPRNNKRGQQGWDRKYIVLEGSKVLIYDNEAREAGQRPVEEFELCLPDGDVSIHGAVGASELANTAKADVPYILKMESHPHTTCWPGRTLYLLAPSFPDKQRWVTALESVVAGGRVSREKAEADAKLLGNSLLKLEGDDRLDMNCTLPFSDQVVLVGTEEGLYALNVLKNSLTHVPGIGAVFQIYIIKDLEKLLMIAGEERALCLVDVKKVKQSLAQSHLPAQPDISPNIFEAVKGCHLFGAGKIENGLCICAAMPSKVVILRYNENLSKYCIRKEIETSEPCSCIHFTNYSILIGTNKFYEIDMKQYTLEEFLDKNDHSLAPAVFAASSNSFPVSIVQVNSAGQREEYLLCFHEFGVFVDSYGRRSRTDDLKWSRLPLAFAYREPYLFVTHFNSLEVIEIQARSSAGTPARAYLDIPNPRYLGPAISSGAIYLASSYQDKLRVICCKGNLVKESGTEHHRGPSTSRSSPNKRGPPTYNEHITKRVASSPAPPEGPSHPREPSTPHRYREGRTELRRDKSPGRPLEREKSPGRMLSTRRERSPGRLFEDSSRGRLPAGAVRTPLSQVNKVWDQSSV
Serine/threonine-protein kinase 10 (Homo sapiens), sequence (O94804 whole entry, looked up): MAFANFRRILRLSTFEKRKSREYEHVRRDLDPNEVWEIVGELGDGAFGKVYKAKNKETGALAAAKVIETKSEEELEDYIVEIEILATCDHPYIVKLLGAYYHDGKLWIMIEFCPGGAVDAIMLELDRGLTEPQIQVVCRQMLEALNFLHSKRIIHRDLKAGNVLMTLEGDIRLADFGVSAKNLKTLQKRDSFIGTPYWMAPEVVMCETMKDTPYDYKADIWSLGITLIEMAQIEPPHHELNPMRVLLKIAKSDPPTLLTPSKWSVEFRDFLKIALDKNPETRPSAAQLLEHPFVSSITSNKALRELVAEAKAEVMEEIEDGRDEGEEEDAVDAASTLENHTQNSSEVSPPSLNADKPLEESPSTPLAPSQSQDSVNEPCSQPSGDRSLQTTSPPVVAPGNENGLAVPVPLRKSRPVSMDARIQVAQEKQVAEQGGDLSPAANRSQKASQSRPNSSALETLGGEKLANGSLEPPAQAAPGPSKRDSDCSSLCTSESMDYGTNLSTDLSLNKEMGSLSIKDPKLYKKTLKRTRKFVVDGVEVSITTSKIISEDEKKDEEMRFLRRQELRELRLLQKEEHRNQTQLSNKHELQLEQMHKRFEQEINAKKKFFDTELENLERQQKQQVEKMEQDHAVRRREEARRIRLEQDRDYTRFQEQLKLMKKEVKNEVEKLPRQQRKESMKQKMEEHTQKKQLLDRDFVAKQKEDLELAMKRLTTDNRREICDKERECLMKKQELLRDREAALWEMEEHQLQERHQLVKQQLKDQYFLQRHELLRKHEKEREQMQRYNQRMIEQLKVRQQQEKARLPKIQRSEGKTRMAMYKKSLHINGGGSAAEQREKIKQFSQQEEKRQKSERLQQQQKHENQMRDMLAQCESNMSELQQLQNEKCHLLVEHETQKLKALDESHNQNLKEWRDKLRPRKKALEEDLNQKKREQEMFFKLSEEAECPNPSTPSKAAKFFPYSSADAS
Receptor-type tyrosine-protein kinase FLT3 (Homo sapiens), P36888 [UNDEFINED MUTATION], sequence (P36888 whole entry, looked up, stated change not applied): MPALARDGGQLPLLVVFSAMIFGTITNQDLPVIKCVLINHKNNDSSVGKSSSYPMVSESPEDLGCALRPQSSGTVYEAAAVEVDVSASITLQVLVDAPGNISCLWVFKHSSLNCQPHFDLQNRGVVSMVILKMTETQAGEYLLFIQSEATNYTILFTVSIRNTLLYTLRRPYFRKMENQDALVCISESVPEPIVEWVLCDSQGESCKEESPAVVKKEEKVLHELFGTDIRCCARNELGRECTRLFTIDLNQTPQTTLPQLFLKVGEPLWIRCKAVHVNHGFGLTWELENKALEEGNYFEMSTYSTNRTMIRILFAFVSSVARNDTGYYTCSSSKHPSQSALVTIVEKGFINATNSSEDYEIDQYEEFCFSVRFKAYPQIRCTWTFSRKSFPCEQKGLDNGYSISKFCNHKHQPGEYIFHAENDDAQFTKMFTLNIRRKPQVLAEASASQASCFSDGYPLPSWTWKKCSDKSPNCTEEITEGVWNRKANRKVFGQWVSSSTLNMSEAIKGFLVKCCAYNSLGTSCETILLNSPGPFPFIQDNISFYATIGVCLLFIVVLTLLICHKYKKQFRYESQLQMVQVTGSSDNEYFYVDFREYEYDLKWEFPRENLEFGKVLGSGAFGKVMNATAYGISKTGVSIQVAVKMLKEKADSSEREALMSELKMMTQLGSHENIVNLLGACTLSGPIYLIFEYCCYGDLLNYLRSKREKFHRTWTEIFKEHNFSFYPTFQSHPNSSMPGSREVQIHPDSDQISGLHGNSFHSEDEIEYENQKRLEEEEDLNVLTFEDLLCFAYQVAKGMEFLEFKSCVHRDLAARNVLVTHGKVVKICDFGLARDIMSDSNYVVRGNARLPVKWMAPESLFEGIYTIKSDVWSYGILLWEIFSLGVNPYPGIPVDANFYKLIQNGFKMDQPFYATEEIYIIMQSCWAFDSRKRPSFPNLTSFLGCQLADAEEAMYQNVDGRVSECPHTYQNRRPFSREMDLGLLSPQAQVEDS

CC(C)(O)c1cncc(-c2nc3ccc(F)cc3n2C2CC2)c1 [MSD-CYP11B2]
inactive: residual activity [1] 77% | residual activity [2] 100% | residual activity [3] 100% | residual activity [4] 100% | residual activity [5] 100% | residual activity [6] 90% | residual activity [7] 100% | inhibition [8] 2.65% | residual activity [9] 100% | residual activity [10] 87% | residual activity [11] 100% | residual activity [12] 100% | residual activity [13] 100% | residual activity [14] 100% | residual activity [15] 95% | residual activity [16] 94% | residual activity [17] 100% | residual activity [18] 95% | inhibition [19] -6.88% | inhibition [20] 16.8% | inhibition [21] -0.31% | residual activity [22] 100% | residual activity [23] 95% | residual activity [24] 100% | residual activity [25] 100% | residual activity [26] 90% | residual activity [27] 91% | residual activity [28] 86% | residual activity [29] 100% | residual activity [30] 100% | residual activity [31] 100% | residual activity [32] 100% | residual activity [33] 100% | residual activity [34] 100% | residual activity [35] 100% | residual activity [36] 89% | residual activity [37] 100% | residual activity [38] 99%

FC(F)(F)c1ccc2c(c1)nc(-c1cccnc1)n2C1CC1 [MSD-CYP11B2-Negative-control]
inactive: residual activity [1] 92% | residual activity [2] 100% | residual activity [3] 100% | residual activity [4] 100% | residual activity [5] 100% | residual activity [6] 87% | residual activity [7] 100% | inhibition [8] 1.56% | residual activity [9] 100% | residual activity [10] 100% | residual activity [11] 100% | residual activity [12] 100% | residual activity [13] 100% | residual activity [14] 100% | residual activity [15] 100% | residual activity [16] 100% | residual activity [17] 100% | residual activity [18] 100% | inhibition [19] -8.72% | inhibition [20] 8.83% | inhibition [21] 4.15% | residual activity [22] 100% | residual activity [23] 100% | residual activity [24] 100% | residual activity [25] 98% | residual activity [26] 99% | residual activity [27] 99% | residual activity [28] 85% | residual activity [29] 100% | residual activity [30] 100% | residual activity [31] 100% | residual activity [32] 100% | residual activity [33] 100% | residual activity [34] 100% | residual activity [35] 100% | residual activity [36] 91% | residual activity [37] 100% | residual activity [38] 93%
